Tests used:
Assay in all cases: Test C greenhouse herbicide test, pre- and postemergence
Type in all cases: in vivo
[1] = test system: barnyardgrass (Echinochloa crus-galli)
Outline: (§1)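 Each species was treated both before emergence, in a loam–sand soil mix, and after emergence, as 1- to 4-leaf seedlings in peat-based potting medium. Plants stayed in the greenhouse 13 to 15 d, then were scored from 0 (no effect) to 100 (complete control) relative to controls.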

[2] = test system: blackgrass (Alopecurus myosuroides)
Outline: as §1

[3] = test system: crabgrass, large (large crabgrass, Digitaria sanguinalis)
Outline: as §1

[4] = test system: foxtail, giant (giant foxtail, Setaria faberii)
Outline: as §1

[5] = test system: galium (catchweed bedstraw, Galium aparine)
Outline: as §1

[6] = test system: johnsongrass (Sorghum halepense)
Outline: as §1

[7] = test system: lambsquarters (Chenopodium album)
Outline: as §1

[8] = test system: morningglory (Ipomoea coccinea)
Outline: as §1

[9] = test system: nutsedge, yellow (yellow nutsedge, Cyperus esculentus)
Outline: as §1

[10] = test system: oilseed rape (Brassica napus)
Outline: as §1

[11] = test system: pigweed (Amaranthus retroflexus)
Outline: as §1

[12] = test system: ragweed (common ragweed, Ambrosia elatior)
Outline: as §1

[13] = test system: soybean (Glycine max)
Outline: as §1

[14] = test system: velvetleaf (Abutilon theophrasti)
Outline: as §1

[15] = test system: waterhemp (common waterhemp, Amaranthus rudis)
Outline: as §1

[16] = test system: wheat (winter wheat, Triticum aestivum)
Outline: as §1

[17] = Postemergence, 31 g ai/ha, scale 0 to 100 (0 no effect, 100 complete control)
[18] = Postemergence, 125 g ai/ha, scale 0 to 100, 0 is no effect, 100 is complete control
[19] = Postemergence, 250 g ai/ha, scale 0 to 100, 0 no effect, 100 complete control, 13 to 15 d
[20] = postemergence, 62 g ai/ha, scale 0 to 100, 0 no effect, 100 complete control
[21] = Preemergence, 31 g ai/ha, scale 0 to 100, 0 is no effect, 100 is complete control
[22] = Preemergence, 62 g ai/ha, scale 0 to 100, 0 is no effect, 100 is complete control
[23] = Preemergence, 125 g ai/ha, scale 0 to 100, 0 is no effect, 100 is complete control
[24] = Preemergence, 250 g ai/ha, scale 0 to 100 (0 no effect, 100 complete control)

Cc1nn(C)c(=O)c(-c2ccc(F)c3ccccc23)c1OC(=O)CC(F)(F)F [Compound 123]
Plant response rating, Barnyardgrass [1, 17]: 20 | Plant response rating, Barnyardgrass [1, 18]: 40 | Plant response rating, Barnyardgrass [1, 19]: 70 | Barnyardgrass plant response rating [1, 20]: 25 | Plant response rating, Blackgrass [2, 17]: 15 | Plant response rating, Blackgrass [2, 18]: 45 | Plant response rating, Blackgrass [2, 19]: 45 | Blackgrass plant response rating [2, 20]: 35 | Plant response rating, Crabgrass, Large [3, 17]: 10 | Plant response rating, Crabgrass, Large [3, 18]: 30 | Plant response rating, Crabgrass, Large [3, 19]: 75 | Crabgrass, Large plant response rating [3, 20]: 35 | Plant response rating, Foxtail, Giant [4, 17]: 20 | Plant response rating, Foxtail, Giant [4, 18]: 35 | Plant response rating, Foxtail, Giant [4, 19]: 80 | Plant response rating, Galium [5, 17]: 95 | Plant response rating, Galium [5, 18]: 95 | Plant response rating, Galium [5, 19]: 95 | Plant response rating, Johnsongrass [6, 17]: 5 | Plant response rating, Johnsongrass [6, 18]: 20 | Plant response rating, Johnsongrass [6, 19]: 25 | Plant response rating, Lambsquarters [7, 17]: 95 | Plant response rating, Lambsquarters [7, 18]: 100 | Plant response rating, Lambsquarters [7, 19]: 100 | Plant response rating, Morningglory [8, 17]: 95 | Plant response rating, Morningglory [8, 18]: 98 | Plant response rating, Morningglory [8, 19]: 100 | Plant response rating, Nutsedge, Yellow [9, 17]: 55 | Plant response rating, Nutsedge, Yellow [9, 18]: 85 | Plant response rating, Nutsedge, Yellow [9, 19]: 90 | Plant response rating, Oilseed Rape [10, 17]: 0 | Plant response rating, Oilseed Rape [10, 18]: 0 | Plant response rating, Oilseed Rape [10, 19]: 5 | Plant response rating, Pigweed [11, 17]: 65 | Plant response rating, Pigweed [11, 18]: 80 | Plant response rating, Pigweed [11, 19]: 98 | Plant response rating, Ragweed [12, 17]: 75 | Plant response rating, Ragweed [12, 18]: 95 | Plant response rating, Ragweed [12, 19]: 98 | Plant response rating, Soybean [13, 17]: 10 | Plant response rating, Soybean [13, 18]: 20 | Plant response rating, Soybean [13, 19]: 65 | Plant response rating, Velvetleaf [14, 17]: 65 | Plant response rating, Velvetleaf [14, 18]: 85 | Plant response rating, Velvetleaf [14, 19]: 95 | Plant response rating, Waterhemp [15, 17]: 80 | Plant response rating, Waterhemp [15, 18]: 100 | Plant response rating, Waterhemp [15, 19]: 100 | Plant response rating, Wheat [16, 17]: 5 | Plant response rating, Wheat [16, 18]: 15 | Plant response rating, Wheat [16, 19]: 20

Cc1ccc2ccccc2c1-c1c(O)c(Cl)nn(C)c1=O [Compound 125]
Plant response rating, Barnyardgrass [1, 17]: 35 | Plant response rating, Barnyardgrass [1, 18]: 80 | Plant response rating, Barnyardgrass [1, 19]: 70 | Plant response rating, Barnyardgrass [1, 21]: 55 | Plant response rating, Barnyardgrass [1, 22]: 70 | Plant response rating, Barnyardgrass [1, 23]: 90 | Barnyardgrass plant response rating [1, 24]: 98 | Barnyardgrass plant response rating [1, 20]: 40 | Plant response rating, Blackgrass [2, 17]: 20 | Plant response rating, Blackgrass [2, 18]: 60 | Plant response rating, Blackgrass [2, 19]: 80 | Plant response rating, Blackgrass [2, 21]: 50 | Plant response rating, Blackgrass [2, 22]: 55 | Plant response rating, Blackgrass [2, 23]: 55 | Blackgrass plant response rating [2, 24]: 90 | Blackgrass plant response rating [2, 20]: 45 | Plant response rating, Crabgrass, Large [3, 17]: 25 | Plant response rating, Crabgrass, Large [3, 18]: 40 | Plant response rating, Crabgrass, Large [3, 19]: 60 | Plant response rating, Crabgrass, Large [3, 21]: 40 | Plant response rating, Crabgrass, Large [3, 22]: 45 | Plant response rating, Crabgrass, Large [3, 23]: 75 | Crabgrass, Large plant response rating [3, 24]: 98 | Crabgrass, Large plant response rating [3, 20]: 35 | Plant response rating, Foxtail, Giant [4, 17]: 70 | Plant response rating, Foxtail, Giant [4, 18]: 95 | Plant response rating, Foxtail, Giant [4, 19]: 98 | Plant response rating, Foxtail, Giant [4, 21]: 95 | Plant response rating, Foxtail, Giant [4, 22]: 100 | Plant response rating, Foxtail, Giant [4, 23]: 98 | Foxtail, Giant plant response rating [4, 24]: 100 | Plant response rating, Galium [5, 17]: 95 | Plant response rating, Galium [5, 18]: 95 | Plant response rating, Galium [5, 19]: 95 | Plant response rating, Galium [5, 21]: 100 | Plant response rating, Galium [5, 22]: 100 | Plant response rating, Galium [5, 23]: 100 | Galium plant response rating [5, 24]: 100 | Plant response rating, Johnsongrass [6, 17]: 5 | Plant response rating, Johnsongrass [6, 18]: 20 | Plant response rating, Johnsongrass [6, 19]: 20 | Plant response rating, Johnsongrass [6, 21]: 40 | Plant response rating, Johnsongrass [6, 22]: 55 | Plant response rating, Johnsongrass [6, 23]: 60 | Johnsongrass plant response rating [6, 24]: 70 | Plant response rating, Lambsquarters [7, 17]: 90 | Plant response rating, Lambsquarters [7, 18]: 98 | Plant response rating, Lambsquarters [7, 19]: 100 | Plant response rating, Lambsquarters [7, 21]: 90 | Plant response rating, Lambsquarters [7, 22]: 100 | Plant response rating, Lambsquarters [7, 23]: 100 | Lambsquarters plant response rating [7, 24]: 100 | Plant response rating, Morningglory [8, 17]: 95 | Plant response rating, Morningglory [8, 18]: 100 | Plant response rating, Morningglory [8, 19]: 100 | Plant response rating, Morningglory [8, 21]: 90 | Plant response rating, Morningglory [8, 22]: 95 | Plant response rating, Morningglory [8, 23]: 95 | Morningglory plant response rating [8, 24]: 98 | Plant response rating, Nutsedge, Yellow [9, 17]: 35 | Plant response rating, Nutsedge, Yellow [9, 18]: 85 | Plant response rating, Nutsedge, Yellow [9, 19]: 90 | Plant response rating, Nutsedge, Yellow [9, 21]: 65 | Plant response rating, Nutsedge, Yellow [9, 22]: 95 | Plant response rating, Nutsedge, Yellow [9, 23]: 95 | Nutsedge, Yellow plant response rating [9, 24]: 90 | Plant response rating, Oilseed Rape [10, 17]: 0 | Plant response rating, Oilseed Rape [10, 18]: 5 | Plant response rating, Oilseed Rape [10, 19]: 10 | Plant response rating, Oilseed Rape [10, 21]: 85 | Plant response rating, Oilseed Rape [10, 22]: 0 | Plant response rating, Oilseed Rape [10, 23]: 85 | Oilseed Rape plant response rating [10, 24]: 100 | Plant response rating, Pigweed [11, 17]: 95 | Plant response rating, Pigweed [11, 18]: 98 | Plant response rating, Pigweed [11, 19]: 98 | Plant response rating, Pigweed [11, 21]: 100 | Plant response rating, Pigweed [11, 22]: 100 | Plant response rating, Pigweed [11, 23]: 100 | Pigweed plant response rating [11, 24]: 100 | Plant response rating, Ragweed [12, 17]: 95 | Plant response rating, Ragweed [12, 18]: 98 | Plant response rating, Ragweed [12, 19]: 98 | Plant response rating, Ragweed [12, 21]: 95 | Plant response rating, Ragweed [12, 22]: 100 | Plant response rating, Ragweed [12, 23]: 98 | Ragweed plant response rating [12, 24]: 100 | Plant response rating, Soybean [13, 17]: 0 | Plant response rating, Soybean [13, 18]: 10 | Plant response rating, Soybean [13, 19]: 10 | Plant response rating, Soybean [13, 21]: 0 | Plant response rating, Soybean [13, 22]: 5 | Plant response rating, Soybean [13, 23]: 30 | Soybean plant response rating [13, 24]: 35 | Plant response rating, Velvetleaf [14, 17]: 85 | Plant response rating, Velvetleaf [14, 18]: 95 | Plant response rating, Velvetleaf [14, 19]: 98 | Plant response rating, Velvetleaf [14, 21]: 95 | Plant response rating, Velvetleaf [14, 22]: 100 | Plant response rating, Velvetleaf [14, 23]: 100 | Velvetleaf plant response rating [14, 24]: 100 | Plant response rating, Waterhemp [15, 17]: 85 | Plant response rating, Waterhemp [15, 18]: 98 | Plant response rating, Waterhemp [15, 19]: 100 | Plant response rating, Waterhemp [15, 21]: 98 | Plant response rating, Waterhemp [15, 22]: 100 | Plant response rating, Waterhemp [15, 23]: 100 | Waterhemp plant response rating [15, 24]: 100 | Plant response rating, Wheat [16, 17]: 0 | Plant response rating, Wheat [16, 18]: 30 | Plant response rating, Wheat [16, 19]: 35 | Plant response rating, Wheat [16, 21]: 40 | Plant response rating, Wheat [16, 22]: 45 | Plant response rating, Wheat [16, 23]: 90 | Wheat plant response rating [16, 24]: 90
